Measured values published in article PMC11318023, “Discovery of VU6008677: A Structurally Distinct Tricyclic M4 Positive Allosteric Modulator with Improved CYP450 Profile” (ACS Medicinal Chemistry Letters, 2024).
Where two headings read alike, the source gives them in different places.

What was measured:
human M2 (hM2) = target: T1, human M2 (hM2) (Homo sapiens, UniProt P08172); test: Calcium mobilization assay, hM2/Gqi5-CHO cells, with EC20 acetylcholine; assay type: cell-based
T1 construct: expressed in transfected cells
T1 sequence (P08172 1-466): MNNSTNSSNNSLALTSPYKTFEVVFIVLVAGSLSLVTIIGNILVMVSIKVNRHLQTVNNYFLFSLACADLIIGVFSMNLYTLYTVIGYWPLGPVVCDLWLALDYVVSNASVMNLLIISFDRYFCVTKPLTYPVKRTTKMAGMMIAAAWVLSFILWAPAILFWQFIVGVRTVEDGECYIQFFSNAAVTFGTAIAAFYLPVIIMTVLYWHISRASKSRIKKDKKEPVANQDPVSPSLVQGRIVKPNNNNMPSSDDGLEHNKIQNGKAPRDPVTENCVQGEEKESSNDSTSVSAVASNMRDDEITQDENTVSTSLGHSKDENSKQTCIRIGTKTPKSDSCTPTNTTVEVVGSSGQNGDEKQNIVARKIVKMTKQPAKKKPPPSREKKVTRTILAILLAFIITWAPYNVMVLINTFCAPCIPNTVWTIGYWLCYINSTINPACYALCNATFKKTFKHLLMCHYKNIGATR
Excerpt: buffer remained in the cell plates. […] After establishment of a […]

[1] = Intrinsic clearance in rat liver microsomes (substrate depletion), predicted hepatic clearance; assay type: in vitro ADME; conditions: for CLint scaled at 1 µM: pH 7.4, rat liver microsomes; for CLhep, rat (predicted hepatic clearance): predicted from rat microsomal CLint
[2] = Intrinsic clearance in human liver microsomes (substrate depletion), predicted hepatic clearance; assay type: in vitro ADME; conditions: for CLint scaled at 1 µM: pH 7.4, human liver microsomes; for CLhep, human (predicted hepatic clearance): predicted from human microsomal CLint
[3] = Binding in plasma from rat, equilibrium dialysis; assay type: in vitro ADME; conditions: read-out: rat fu,plasma
[4] = Binding in plasma from human, equilibrium dialysis; assay type: in vitro ADME; conditions: human, plasma, read-out: human fu,plasma
[5] = Binding in brain homogenate from rat, equilibrium dialysis; assay type: in vitro ADME; conditions: rat, brain homogenate, rat brain homogenates, read-out: rat fu,brain
CYP 1A2 [6] = target: T2, CYP 1A2 (Homo sapiens, UniProt P05177); test: CYP450 inhibition in pooled human liver microsomes, CYP-specific probe substrates; assay type: in vitro ADME; conditions: pooled HLM, NADPH, CYP-specific probe substrate
T2 sequence (P05177 1-516): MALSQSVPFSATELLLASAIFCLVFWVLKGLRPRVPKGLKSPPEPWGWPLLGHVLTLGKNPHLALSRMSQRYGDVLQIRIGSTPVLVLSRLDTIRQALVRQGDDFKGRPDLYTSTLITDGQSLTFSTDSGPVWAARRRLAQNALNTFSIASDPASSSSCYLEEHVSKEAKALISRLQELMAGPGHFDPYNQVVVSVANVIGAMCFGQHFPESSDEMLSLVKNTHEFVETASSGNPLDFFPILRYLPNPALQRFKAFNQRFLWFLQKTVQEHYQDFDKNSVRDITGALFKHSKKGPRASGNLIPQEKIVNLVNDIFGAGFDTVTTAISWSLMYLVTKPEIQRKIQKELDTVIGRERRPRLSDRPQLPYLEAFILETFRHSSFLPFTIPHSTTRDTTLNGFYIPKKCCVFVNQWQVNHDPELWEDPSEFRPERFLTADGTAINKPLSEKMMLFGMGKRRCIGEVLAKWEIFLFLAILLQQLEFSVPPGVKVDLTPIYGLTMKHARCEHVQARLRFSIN

CYP 2C9 [7] = target: T3, CYP 2C9 (Homo sapiens, UniProt P11712); test: as above; assay type: in vitro ADME; conditions: pooled HLM, NADPH, CYP-specific probe substrate
CYP 2D6 [8] = target: T4, CYP 2D6 (Homo sapiens, UniProt P10635); test: as above; assay type: in vitro ADME; conditions: pooled HLM, NADPH, CYP-specific probe substrate
CYP 3A4 = CYP 3A4 (Homo sapiens, UniProt P08684); test: as above; assay type: in vitro ADME; conditions: pooled HLM, NADPH, CYP-specific probe substrate
human M4 (hM4) = target: T5, human M4 (hM4) (Homo sapiens, UniProt P08173); test: Calcium mobilization assay, hM4/Gqi5-CHO cells, with EC20 acetylcholine (PAM); conditions: hM4/Gqi5-CHO cells, calcium mobilization; for hM4 pEC50 / hM4 %ACh Max: EC20 acetylcholine; for hM4 %ACh Max: maximum response; for EC50: read-out: hM4 EC50, EC20 fixed concentration of acetylcholine
T5 sequence (P08173 1-479): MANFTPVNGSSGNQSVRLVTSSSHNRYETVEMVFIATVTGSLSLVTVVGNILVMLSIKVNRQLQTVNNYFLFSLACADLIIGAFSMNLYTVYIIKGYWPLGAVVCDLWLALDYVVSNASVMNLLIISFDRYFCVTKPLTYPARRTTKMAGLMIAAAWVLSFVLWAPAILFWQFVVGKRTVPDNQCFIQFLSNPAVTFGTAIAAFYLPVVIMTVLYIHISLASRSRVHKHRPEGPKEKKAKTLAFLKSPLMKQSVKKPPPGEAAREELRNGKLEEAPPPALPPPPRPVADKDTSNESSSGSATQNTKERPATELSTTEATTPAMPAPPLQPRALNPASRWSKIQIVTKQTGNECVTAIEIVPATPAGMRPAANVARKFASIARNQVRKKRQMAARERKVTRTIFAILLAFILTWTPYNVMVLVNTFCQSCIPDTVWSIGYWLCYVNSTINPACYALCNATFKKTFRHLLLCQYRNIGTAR

[9] = parameters: method as in PMID 18772318, PMID 24442096, PMID 34710625; conditions: Figure 1, earlier M4 PAMs; cited from earlier work
[10] = parameters: method as in PMID 18772318, PMID 24442096, PMID 34710625; conditions: rat; Figure 1, earlier M4 PAMs; cited from earlier work
[11] = parameters: method as in PMID 18772318, PMID 24442096, PMID 34710625; conditions: human; Figure 1, earlier M4 PAMs; cited from earlier work
[12] = parameters: method as in PMID 18772318, PMID 24442096, PMID 34710625; conditions: rat brain; Figure 1, earlier M4 PAMs; cited from earlier work
CYP 1A2 [13] = target: T2, CYP 1A2; parameters: method as in PMID 23177787; conditions: Figure 1; read-out: Cyp P450 Inhibition (1A2); cited from earlier work
CYP 2C9 [14] = target: T3, CYP 2C9; parameters: method as in PMID 23177787; conditions: Figure 1; read-out: Cyp P450 Inhibition (2C9); cited from earlier work
CYP 2D6 [15] = target: T4, CYP 2D6; parameters: method as in PMID 23177787; conditions: Figure 1; read-out: Cyp P450 Inhibition (2D6); cited from earlier work

T4 sequence (P10635 whole entry): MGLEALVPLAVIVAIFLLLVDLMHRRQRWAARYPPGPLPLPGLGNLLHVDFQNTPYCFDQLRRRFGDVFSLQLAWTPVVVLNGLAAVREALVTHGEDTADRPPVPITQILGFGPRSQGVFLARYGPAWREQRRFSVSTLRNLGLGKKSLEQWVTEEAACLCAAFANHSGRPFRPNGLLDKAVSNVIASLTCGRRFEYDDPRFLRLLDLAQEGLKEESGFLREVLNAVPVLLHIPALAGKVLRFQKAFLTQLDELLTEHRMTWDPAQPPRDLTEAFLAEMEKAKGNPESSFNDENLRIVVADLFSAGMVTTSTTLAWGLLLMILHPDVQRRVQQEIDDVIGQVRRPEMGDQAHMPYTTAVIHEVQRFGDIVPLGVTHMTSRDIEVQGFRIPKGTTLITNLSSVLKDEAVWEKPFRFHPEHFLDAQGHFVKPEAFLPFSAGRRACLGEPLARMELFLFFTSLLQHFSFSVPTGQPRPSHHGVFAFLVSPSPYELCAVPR
T3 sequence (P11712 whole entry): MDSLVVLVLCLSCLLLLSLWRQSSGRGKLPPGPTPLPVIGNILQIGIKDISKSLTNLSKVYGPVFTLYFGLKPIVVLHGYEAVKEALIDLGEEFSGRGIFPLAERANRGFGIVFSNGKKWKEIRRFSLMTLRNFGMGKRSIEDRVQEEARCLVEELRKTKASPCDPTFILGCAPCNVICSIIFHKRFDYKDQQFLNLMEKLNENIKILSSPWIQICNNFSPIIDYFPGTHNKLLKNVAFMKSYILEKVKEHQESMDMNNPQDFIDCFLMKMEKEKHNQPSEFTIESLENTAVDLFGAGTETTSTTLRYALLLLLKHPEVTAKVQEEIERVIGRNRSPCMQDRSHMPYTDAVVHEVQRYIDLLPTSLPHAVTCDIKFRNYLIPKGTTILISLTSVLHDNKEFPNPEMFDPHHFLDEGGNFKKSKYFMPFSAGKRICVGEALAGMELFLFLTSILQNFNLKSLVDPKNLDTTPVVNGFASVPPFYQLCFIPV
Sequence of CYP 3A4 (P08684 whole entry): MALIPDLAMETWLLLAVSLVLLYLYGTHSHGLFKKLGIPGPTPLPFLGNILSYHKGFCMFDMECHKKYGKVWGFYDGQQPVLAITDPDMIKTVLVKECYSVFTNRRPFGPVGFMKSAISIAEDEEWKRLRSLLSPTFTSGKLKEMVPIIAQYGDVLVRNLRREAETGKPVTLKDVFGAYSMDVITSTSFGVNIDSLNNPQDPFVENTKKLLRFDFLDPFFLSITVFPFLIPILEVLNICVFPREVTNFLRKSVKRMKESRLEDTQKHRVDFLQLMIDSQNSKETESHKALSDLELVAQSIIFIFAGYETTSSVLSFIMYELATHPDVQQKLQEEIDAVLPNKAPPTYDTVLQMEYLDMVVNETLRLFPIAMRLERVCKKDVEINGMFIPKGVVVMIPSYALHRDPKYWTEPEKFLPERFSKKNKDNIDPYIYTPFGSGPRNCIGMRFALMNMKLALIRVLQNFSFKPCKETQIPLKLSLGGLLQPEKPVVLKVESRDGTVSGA

| CLint scaled at 1 µM [1] [mL/min/kg] | CLhep, rat (predicted hepatic clearance) [1] [mL/min/kg] | CLint scaled at 1 µM [2] [mL/min/kg] | CLhep, human (predicted hepatic clearance) [2] [mL/min/kg] | fraction unbound at 6 h, 5 µM [3] | fraction unbound at 6 h, 5 µM [4] | fraction unbound at 6 h, 1 µM [5] | IC50 (CYP 1A2 [6]) [nM] | IC50 (CYP 2C9 [7]) [nM] | IC50 (CYP 2D6 [8]) [nM] | IC50 (CYP 3A4) [nM] | hM4 pEC50 (human M4 (hM4)) | hM4 %ACh Max (human M4 (hM4)) [%] | EC50 (human M4 (hM4)) [nM] | SMILES | rat CLhep [9] [mL/min/kg] | fu,plasma (r) [10] | fu,b (r) [12] | other results |
| --- | --- | --- | --- | --- | --- | --- | --- | --- | --- | --- | --- | --- | --- | --- | --- | --- | --- | --- |
| 420 | 60 | 52 | 15 | 0.042 | 0.013 | 0.011 | < 100 | 19200 | 7900 | 28800 | 7.19 | 88 | 65 | Cc1nc2sc3c(NC4CC4)nncc3c2c(C)c1Cl.Cl [Compound 22i] | – | – | – | hM2 EC50 (human M2 (hM2)): inactive |
| – | – | – | – | – | – | – | – | – | – | – | – | – | – | Cc1cc(C)c2c(n1)sc1c(N3CC4(COC4)C3)ncnc12 [VU6007215] | 63 | 0.206 | 0.019 | fu,plasma (h) [11]: 0.056 |
| – | – | – | – | – | – | – | – | – | – | – | – | – | – | Cc1nc2sc(C(=O)NCc3ccncc3)c(N)c2c(C)c1Cl [ML253] | – | – | – | IC50 (CYP 1A2 [13]): 120 nM; IC50 (CYP 2C9 [14]): < 100 nM; IC50 (CYP 2D6 [15]): 700 nM |
| – | – | – | – | – | – | – | – | – | – | – | – | – | – | COc1ccc(CNC(=O)c2sc3nc(C)cc(C)c3c2N)cc1 [VU0152100] | 65 | 0.011 | 0.045 | – |
| 789 | 64 | 57 | 15 | 0.039 | 0.01 | 0.003 | < 100 | > 30000 | > 30000 | 24300 | 7.60 | 110 | 25 | Cc1c(Cl)cnc2sc3c(NC4CC4)ncnc3c12 [Compound 15g] | – | – | – | EC50 (human M2 (hM2)): 480 nM; hM2 % ACh Max (human M2 (hM2)): 40% |
